This passage reports IC50 and Cmax results from ChEMBL document CHEMBL5104137, “The overview of Mitogen-activated extracellular signal-regulated kinase (MEK)-based dual inhibitor in the treatment of cancers” (Bioorg Med Chem, 2022).

Data set [1] is described as follows: Inhibition of human MEK using 5-Fl-SGQLIDSMANSFV-NH2 peptide as substrate by FRET assay.
In data set [2] the target is Serine/threonine-protein kinase B-raf (Homo sapiens, UniProt P15056). As to the kind of experiment: Inhibition of wild type human BRAF using 5-Fl-SGQLIDSMANSFV-NH2 peptide as substrate by FRET assay.
Sequence of Serine/threonine-protein kinase B-raf (Homo sapiens, UniProt P15056) (P15056 whole entry): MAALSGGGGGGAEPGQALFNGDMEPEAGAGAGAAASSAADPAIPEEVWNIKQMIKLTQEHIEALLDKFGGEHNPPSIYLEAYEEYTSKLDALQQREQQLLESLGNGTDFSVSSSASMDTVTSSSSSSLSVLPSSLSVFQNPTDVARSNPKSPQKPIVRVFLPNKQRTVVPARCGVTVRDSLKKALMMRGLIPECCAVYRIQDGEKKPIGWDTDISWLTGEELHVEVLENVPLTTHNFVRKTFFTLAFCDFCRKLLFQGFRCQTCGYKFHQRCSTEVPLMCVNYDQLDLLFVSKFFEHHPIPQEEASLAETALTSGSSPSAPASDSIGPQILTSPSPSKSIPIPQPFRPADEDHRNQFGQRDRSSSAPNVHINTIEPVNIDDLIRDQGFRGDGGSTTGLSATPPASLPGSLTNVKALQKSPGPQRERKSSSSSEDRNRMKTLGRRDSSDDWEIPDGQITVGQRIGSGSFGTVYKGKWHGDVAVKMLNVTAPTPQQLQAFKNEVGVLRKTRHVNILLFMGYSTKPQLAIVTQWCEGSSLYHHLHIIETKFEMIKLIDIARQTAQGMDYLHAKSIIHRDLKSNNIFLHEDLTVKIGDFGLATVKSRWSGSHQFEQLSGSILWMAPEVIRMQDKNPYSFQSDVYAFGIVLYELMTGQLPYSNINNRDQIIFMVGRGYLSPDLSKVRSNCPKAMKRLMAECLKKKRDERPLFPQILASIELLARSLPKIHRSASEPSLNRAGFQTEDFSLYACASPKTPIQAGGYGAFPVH
The target of data set [3] is Serine/threonine-protein kinase B-raf (Homo sapiens, UniProt P15056, V600E). As to the kind of experiment: Inhibition of human BRAF V600E mutant using 5-Fl-SGQLIDSMANSFV-NH2 peptide as substrate by FRET assay.
Sequence of Serine/threonine-protein kinase B-raf (Homo sapiens, UniProt P15056, V600E) (P15056 2-766 V600E limits assumed): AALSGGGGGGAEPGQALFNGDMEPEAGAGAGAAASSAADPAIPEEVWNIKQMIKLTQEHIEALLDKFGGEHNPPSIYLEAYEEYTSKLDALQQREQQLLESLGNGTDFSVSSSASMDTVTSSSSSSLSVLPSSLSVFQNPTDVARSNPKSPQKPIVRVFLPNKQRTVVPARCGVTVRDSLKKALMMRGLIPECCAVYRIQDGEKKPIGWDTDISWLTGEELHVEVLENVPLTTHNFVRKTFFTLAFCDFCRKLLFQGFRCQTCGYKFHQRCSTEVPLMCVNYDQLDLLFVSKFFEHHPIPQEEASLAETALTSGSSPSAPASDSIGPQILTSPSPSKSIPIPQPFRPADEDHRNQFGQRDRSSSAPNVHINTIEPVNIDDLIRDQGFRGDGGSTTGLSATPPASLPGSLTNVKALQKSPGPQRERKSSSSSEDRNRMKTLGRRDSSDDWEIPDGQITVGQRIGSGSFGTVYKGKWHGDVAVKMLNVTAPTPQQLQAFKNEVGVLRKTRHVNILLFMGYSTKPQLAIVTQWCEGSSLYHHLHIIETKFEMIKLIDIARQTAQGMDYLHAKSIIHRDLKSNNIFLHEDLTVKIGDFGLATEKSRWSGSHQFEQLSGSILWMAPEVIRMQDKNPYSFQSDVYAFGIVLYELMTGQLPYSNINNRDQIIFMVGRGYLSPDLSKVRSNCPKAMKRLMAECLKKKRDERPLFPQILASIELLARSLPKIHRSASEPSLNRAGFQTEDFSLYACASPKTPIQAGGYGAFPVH
A further data set deals with SK-MEL-2. As to the kind of experiment: Antiproliferative activity against human SK-MEL-2 cells harboring NRAS Q61R mutant assessed as cell growth inhibition measured after 72 hrs by WST-8 assay. The format is functional, cell-based. Particulars: SK-MEL-2, 72 h.
Another data set has as its system SK-MEL-28. As to the kind of experiment: Antiproliferative activity against human SK-MEL-28 cells harboring BRAF V600E mutant assessed as cell growth inhibition measured after 72 hrs by WST-8 assay. As to conditions: SK-MEL-28, 72 h. It counts as functional, cell-based.
A further data set relates to MIA PaCa-2. The data set can be described thus: Antiproliferative activity against human MIA PaCa-2 cells harboring […] mutant assessed as cell growth inhibition measured after 72 hrs by WST-8 assay. The format is functional, cell-based. As to conditions: MIA PaCa-2, 72 h.
A further data set concerns SW480. The data set can be described thus: Antiproliferative activity against human SW480 cells harboring […] mutant assessed as cell growth inhibition measured after 72 hrs by WST-8 assay. Particulars: SW480, 72 h. It counts as functional, cell-based.
The next data set relates to HCT-116. As to the kind of experiment: Antiproliferative activity against human HCT-116 cells harboring […] mutant assessed as cell growth inhibition measured after 72 hrs by WST-8 assay. The format is functional, cell-based. Particulars: HCT-116, 72 h.
Data set [4] is described as follows: Antiproliferative activity against human CT-TC cells harboring HRAS Q61K mutant assessed as cell growth inhibition measured after 72 hrs by WST-8 assay. The format is functional, cell-based.
A further data set relates to MOLM-13. The data set can be described thus: Antiproliferative activity against human MOLM13 cells harboring FLT3-ITD mutant assessed as cell growth inhibition by Trypan blue staining based assay. The format is functional.
In a further data set the test system is MV4-11. The data set can be described thus: Antiproliferative activity against human MV4-11 cells harboring FLT3-ITD mutant assessed as cell growth inhibition by trypan blue staining based assay. The format is functional.
Data set [5] deals with BaF3. The data set can be described thus: Antiproliferative activity against […] cells harboring D835Y mutant assessed as cell growth inhibition by trypan blue staining based assay. It counts as functional. Particulars: Mus musculus.
Data set [6] relates to BaF3. The data set can be described thus: Antiproliferative activity against […] cells harboring D835G mutant assessed as cell growth inhibition by trypan blue staining based assay. Particulars: Mus musculus. It counts as functional.
Data set [7] can be described thus: Inhibition of Xenopus laevis Aurora Kinase C.
Data set [8] is described as follows: Cmax in BomTac:NMRI-Foxn1 mouse xenografted with human Calu6 cells harboring KRAS Q61K mutant at 70 mg/kg per week, po via gavage by electrochemo-luminescence analysis. It counts as ADME, organism-based, Calu-6. The arrangement: dose 70 mg/kg, route po. Particulars: in vivo.
A further data set deals with Aurora kinase B-B (Xenopus laevis, UniProt Q6GPL3). The data set can be described thus: Inhibition of Xenopus laevis Aurora Kinase B.
Sequence of Aurora kinase B-B (Q6GPL3 whole entry): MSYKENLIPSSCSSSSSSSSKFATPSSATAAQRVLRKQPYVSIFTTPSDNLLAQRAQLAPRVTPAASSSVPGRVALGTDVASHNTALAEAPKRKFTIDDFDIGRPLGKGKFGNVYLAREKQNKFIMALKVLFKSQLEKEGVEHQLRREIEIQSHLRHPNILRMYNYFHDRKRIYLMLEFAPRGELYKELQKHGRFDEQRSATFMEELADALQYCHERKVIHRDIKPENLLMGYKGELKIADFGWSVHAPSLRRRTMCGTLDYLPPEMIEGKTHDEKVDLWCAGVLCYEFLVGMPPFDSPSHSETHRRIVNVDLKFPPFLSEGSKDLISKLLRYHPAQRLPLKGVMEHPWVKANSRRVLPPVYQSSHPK
The nature of data set [9]: Cmax in BomTac:NMRI-Foxn1 mouse xenografted with human Calu6 cells harboring KRAS Q61K mutant at 10 mg/kg per day, po via gavage by electrochemo-luminescence analysis. The arrangement: dose 10 mg/kg, route po. As to conditions: in vivo. The format is ADME, organism-based, Calu-6.
Data set [10] can be described thus: Cmax in BomTac:NMRI-Foxn1 mouse xenografted with human Calu6 cells harboring KRAS Q61K mutant at 70 mg/kg per week, po via gavage measured after 24 hrs by electrochemo-luminescence analysis. It counts as ADME, organism-based, Calu-6. The arrangement: dose 70 mg/kg, time 24 hrs, route po. Particulars: in vivo.
A short description of data set [11]: Cmax in BomTac:NMRI-Foxn1 mouse xenografted with human Calu6 cells harboring KRAS Q61K mutant at 10 mg/kg per day, po via gavage measured after 24 hrs by electrochemo-luminescence analysis. The arrangement: time 24 hrs, dose 10 mg/kg, route po. Particulars: in vivo. The format is ADME, organism-based, Calu-6.

In the case of `CNS(=O)(=O)Nc1nccc(Cc2c(C)c3ccc(Oc4ncccn4)cc3oc2=O)c1F` [AVUTOMETINIB], the IC50 in data set [1] was found to be 0.16 µM; in data set [2], 0.019 µM; in data set [3] it was 0.0082 µM; in the data set with SK-MEL-2, 0.028 µM; in the data set on SK-MEL-28, 0.065 µM; in the data set with MIA PaCa-2, 0.04 µM. Also, the IC50 in the data set with SW480 turned out to be 0.046 µM; with HCT-116, 0.277 µM; in [4], 0.36 µM.

Consider `CCNc1cc(O)c2c(c1)/C=C/C[C@H](O)[C@H](O)C(=O)/C=C\[C@@H](C)[C@H](C)OC2=O` [E-6201], for which the IC50 is 0.005 µM in the data set on MOLM-13, 0.002 µM in the data set with MV4-11, 0.026 µM in the data set with BaF3 [5] and 0.0046 µM with BaF3 [6].

With `CCNC(=O)C#Cc1ccc2c(c1)NC(=O)/C2=C(\Nc1ccc(CN(C)C)cc1)c1ccccc1`, the IC50 in data set [7] is 0.015 µM; at Aurora kinase B-B, 0.003 µM. Further, the Cmax came to 2700 nM in data set [8], 380 nM in [9], 460 nM in [10] and 13 nM in [11].
